Tests used:
Aβ1-42:Zn = target: T1, Aβ1-42:Zn (Homo sapiens, UniProt P05067); test: Fluorescence-based (bis-ANS) assay of Aβ1-42:Zn disaggregation; format: biochemical; conditions: Aβ1-42 15 μM, bis-ANS 15 μM, Zn 15 μM; Tris-HCl pH7.4, 26° C.; test compounds 0.227-60 μM added after plateau, read over 20 minutes; concentration reducing fluorescence by 50 percent
T1 construct: Human peptides Aβ1-42 and Amylin 8-37 were purchased; purchased China Peptide
Description: Human peptides Aβ1-42 and Amylin 8-37 were purchased from China Peptide and stored at −80° C. […] The device was configured to maintain 26° C., measure an excitation of 390 nm, emission of 490 nm and cutoff 475 nm with the PMT+set at Medium, 6 flashes/read at 40 second intervals with shaking 5 seconds before the first read and 3 seconds between reads. Experiments were conducted at 26° C. in a Tris-HCl buffer (50 mM, pH7.4) containing NaCl (150 mM). Aβ1-42 was solubilized in DMSO to a concentration of 1.5 mM for 5 minutes then briefly centrifuged to remove any aggregates. The soluble Aβ1-42 (15 μM) was immediately mixed ±bis-ANS (15 μM) and allowed to equilibrate for 5 minutes. Aβ aggregation was induced with the addition of ±Zn (15 μM) in H2O. […] Test compounds (0.227-60 μM in DMSO) were then added and the dose response was measured over a 20-minute period. EDTA, known to chelate Zn, was used as a positive control. Raw fluorescence was normalized to background fluorescence without Aβ and expressed as a percentage of that in control samples without Zn. All quantitative data was expressed as mean±SEM from at least 3 replicates. All statistical analysis was conducted with Prism 6 (GraphPad).

Amylin 8-37 = target: T2, Amylin 8-37 (Homo sapiens, UniProt P10997); test: Fluorescence-based (bis-ANS) assay of Amylin disaggregation; format: biochemical; conditions: Amylin 8-37 15 μM, bis-ANS 15 μM; Tris-HCl pH7.4, 26° C.; aggregation 24 hours, test compounds 0.227-60 μM, read over 24 hour period; concentration reducing fluorescence by 50 percent
T2 construct: Amylin 8-37 peptide was solubilized in DMSO; purchased China Peptide
T2 sequence (P10997 41-70): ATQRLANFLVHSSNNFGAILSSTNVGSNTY
Description: Human peptides Aβ1-42 and Amylin 8-37 were purchased from China Peptide and stored at −80° C. Zinc sulfate heptahydrate (ZnSO4.7H2O), BisANS (4,4′-Dianilino-1,1′-binaphthyl-5,5′-disulfonic acid dipotassium salt), Epigallocatechin-3-gallate (EGCG), 9-(Dicyanovinyl)julolidine (DCVJ) and Clioquinol (CQ) were purchased from Sigma Aldrich. Ethylenediaminetetraacetic acid (EDTA) was purchased from Alfa Aesar. 2-(dimethylamino)methyl-5,7-dichloro-8-hydroxyquinoline (AC-068), structurally similar to PBT-2 was synthesized by Warner Babcock Institute for Green Chemistry, LLC.
Amylin disaggregation was assessed using a Spectramax M5 multi-mode microplate reader (Molecular Devices) using untreated black with clear bottom 96 well plates (Costar #3631). The device was configured to maintain 26° C., measure an excitation of 390 nm, emission of 490 nm and cutoff 475 nm with the PMT+set at Medium, 6 flashes/read at 5-minute intervals with shaking 5 seconds before the first read and 3 seconds between reads.
Experiments were conducted at 26° C. in a Tris-HCl buffer (50 mM, pH7.4) containing NaCl (150 mM). Amylin 8-37 peptide was solubilized in DMSO to a concentration of 1.5 mM for 5 minutes then briefly centrifuged to remove any aggregates. The soluble amylin peptide (15 μM) was immediately mixed ±bis-ANS (15 μM) and the plate sealed to prevent evaporation. Aggregation was measured by an increase in fluorescence over 24 hours. Test compounds (0.227-60 μM in DMSO) were then added and the dose response was measured over a 24 hour period. EGCG was used as a positive control. Raw fluorescence was normalized to background fluorescence without Amylin and expressed as a percentage of that in control samples. All quantitative data was expressed as mean±SEM from at least 3 replicates. All statistical analysis was conducted with Prism 6 (GraphPad). Nonlinear regression was used to calculate the concentration at which fluorescence was reduced by 50 percent (EC50), as shown in Table 2.

T1 sequence (P05067 672-713): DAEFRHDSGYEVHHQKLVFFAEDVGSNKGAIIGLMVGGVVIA

EC50 (Aβ1-42:Zn) [nM] | EC50 (Amylin 8-37) [nM] | Compound
31000 | 1260 | COc1cc(/C=C/c2ccc(N(c3ccc(C(C)(C)C)cc3)c3ccc(C(C)(C)C)cc3)cc2)c(OC)cc1C=C(C#N)C(=O)O (stereo in doubt) [PC-063, (Z)-3-[4-[(E)-2-[4-(4-tert-butyl-N-(4-tert-butylphenyl)anilino)phenyl]vinyl]-2,5-dimethoxy-phenyl]-2-cyano-prop-2-enoic Acid]
747 | 24 | N#CC(=Cc1ccc(/C=C/c2ccc(N(c3ccccc3)c3ccccc3)cc2)cc1)C(=O)O (stereo in doubt) [PC-064, (Z)-2-cyano-3-[4-[(E)-2-[4-(N-phenylanilino)phenyl]vinyl]phenyl]prop-2-enoic Acid]
2210 |  | CN(C)Cc1ccc2c(Cl)cc(Cl)c(O)c2n1 [AC-068(PBT2), 2-(dimethylamino)methyl-5,7-dichloro-8-hydroxyquinoline, reference compound]
2690 | 4070 | Oc1c(I)cc(Cl)c2cccnc12 [CQ, Clioquinol, reference compound]
533 |  | N#CC(C#N)=Cc1cc2c3c(c1)CCCN3CCC2 [DCVJ, 9-(Dicyanovinyl)julolidine, reference compound]
46100 |  | O=C(O)CN(CCN(CC(=O)O)CC(=O)O)CC(=O)O [EDTA, Ethylenediaminetetraacetic acid, reference compound]
 | 1190 | COc1cc(/C=C(\C#N)C(=O)O)c(OC)cc1/C=C/c1ccc(-n2c3ccc(C(C)(C)C)cc3c3cc(C(C)(C)C)ccc32)cc1 [PC-066, (E)-2-cyano-3-[4-[(E)-2-[4-(3,6-ditert-butylcarbazol-9-yl)phenyl]vinyl]-2,5-dimethoxy-phenyl]prop-2-enoic Acid]
338 | 207 | N#C/C(=C/c1ccc(-c2ccc(N(c3ccccc3)c3ccccc3)cc2)o1)C(=O)O [PC-081, (Z)-2-cyano-3-[5-[4-(N-phenylanilino)phenyl]-2-furyl]prop-2-enoic Acid]
49700 | 3740 | CC(C)(C)c1ccc(N(c2ccc(/C=C/c3ccc4cc(C#N)c(=O)[nH]c4c3)cc2)c2ccc(C(C)(C)C)cc2)cc1 [PC-174, 7-[(E)-2-[4-(4-tert-butyl-N-(4-tert-butylphenyl)anilino)phenyl]vinyl]-2-oxo-1H-quinoline-3-carbonitrile]
649 |  | N#C/C(=C/c1ccc(/C=C/c2ccc(N(c3ccccc3)c3ccccc3)cc2)cc1OCC(=O)O)C(=O)O [PC-190, (Z)-3-[2-(carboxymethoxy)-4-[(E)-2-[4-(N-phenylanilino)phenyl]vinyl]phenyl]-2-cyano-prop-2-enoic Acid]
1610 |  | N#C/C(=C/c1ccc(/C=C/c2ccc(N(c3ccccc3)c3ccccc3)cc2)cc1OCCCCCCCC(=O)O)C(=O)O [PC-191]
2850 |  | N#C/C(=C/c1ccc(/C=C/c2ccc(N(c3ccccc3)c3ccccc3)cc2)cc1OCCCCCCCCCC(=O)O)C(=O)O [PC-192]

Compound | EC50 (Aβ1-42:Zn) [nM] | EC50 (Amylin 8-37) [nM]
Epigallocatechin-3-gallate [EGCG, reference compound] |  | 857
